Drawing on publication PMC6572338 (2019), this text covers binding and KD for four compounds.

Structures are written as SMILES.

Assay [1] has as its system C-mycG4 (Pu-27); C-myc G4 (DNA, G4) TGGGGAGGGTGGGGAGGGTGGGGAAGG
The assay can be described thus: PCR-stop assay. To be noted: 50 mM KCl; Platinum Supermix, 0.5 uM each oligonucleotide, Pu27rev primer; dose-dependent reduction of product.

The test system of assay [2] is Pu27rev (DNA, single strand) ATCGATCGCTTCTTCGTCCTTCCCCA
Put plainly: SPR (Biacore 3000). To be noted: 200 mM KCl, 5 mM MgCl2; 20 mM HEPES pH 7.5, 1% DMSO, 0.005% P-20; immobilised compound; NB, oligonucleotide up to 10 uM.

The subject of assay [3] is C-kit2; C-kit2 G4 (DNA, G4) GGGCGGGCGCGAGGGAGGGG
Put plainly: SPR (Biacore 3000), 1:1 Langmuir kinetics. To be noted: 200 mM KCl, 5 mM MgCl2; 20 mM HEPES pH 7.5, 1% DMSO, 0.005% P-20; immobilised compound.

For assay [4], the system named is c-myc_G4_1234; Pu21_1234 (DNA, G4) TGGGGAGGGTGGGGAGGGTGG
The assay can be described thus: SPR (Biacore 3000), 1:1 Langmuir kinetics. To be noted: 200 mM KCl, 5 mM MgCl2, 20 mM HEPES pH 7.5, 1% DMSO, 0.005% P-20, immobilised compound.

Assay [5] relates to C-kit1; C-kit1 G4 (DNA, G4) AGGGAGGGCGCTGGGAGGAGGG
The assay can be described thus: SPR (Biacore 3000), 1:1 Langmuir kinetics. Particulars: 200 mM KCl, 5 mM MgCl2; 20 mM HEPES pH 7.5, 1% DMSO, 0.005% P-20; immobilised compound.

Assay [6] concerns C-mycG4 (Pu-27); C-myc G4 (DNA, G4) TGGGGAGGGTGGGGAGGGTGGGGAAGG
The assay can be described thus: SPR (Biacore 3000), 1:1 Langmuir kinetics. Particulars: 200 mM KCl, 5 mM MgCl2, 20 mM HEPES pH 7.5, 1% DMSO, 0.005% P-20, immobilised compound.

Assay [7] deals with c-myc_G4_2345; Pu21_2345 (DNA, G4) GAGGGTGGGGAGGGTGGGGAA
Put plainly: SPR (Biacore 3000), 1:1 Langmuir kinetics. To be noted: 200 mM KCl, 5 mM MgCl2, 20 mM HEPES pH 7.5, 1% DMSO, 0.005% P-20, immobilised compound.

Turning to `Cc1cnccc1N1CCN(c2nccc3c2nc(-c2c[nH]c4ccncc24)n3CCOCCOCCN)CC1`, the binding result in assay [1] is “yes”.

On to `Cc1cnccc1N1CCN(c2nccc3c2nc(-c2c[nH]c4ccncc24)n3CCOCCOCCNC(=O)CCCC[C@@H]2SC[C@@H]3NC(=O)N[C@@H]32)CC1`, for which, in assay [2], the binding result was “no”. Also, the KD in assay [3] was found to be 1400 nM; in assay [4], 59 nM; in assay [5], 807 nM; in assay [6], 328 nM; in assay [7] (text prints 190 nM), 197 nM.

For the compound `Cn1cccc1CN(CC(=O)NCCOCCOCCN)Cc1ccc(OCC(=O)NCc2nc3ccccc3c(=O)[nH]2)c(Cl)c1`, the binding result in assay [1] is “yes”.

`Cn1cccc1CN(CC(=O)NCCOCCOCCNC(=O)CCCC[C@@H]1SC[C@@H]2NC(=O)N[C@@H]21)Cc1ccc(OCC(=O)NCc2nc3ccccc3c(=O)[nH]2)c(Cl)c1`: the binding entry in assay [2] is on record as “no”. Further, the KD in assay [3] is 1700 nM; in assay [4] (text prints 328 nM), 338 nM; in assay [5], 1100 nM; in assay [6] (text prints 1.06 µM), 1050 nM; in assay [7], 308 nM.
